The source of these data is patent publication US6849607B2, “Galectin recognized photosensitizers for photodynamic therapy” (Health Research, Inc., priority 2001, dated 2005).

Assay [1] concerns radiation induced fibrosarcoma (RIF) tumor cell. In words: In vitro photosensitizing activity in RIF tumor cells (MTT). Format: cell-based. To be noted: 2.0 μM, light dose of 4 J/cm2. The method, then:
Both cell lines are known to have some expression for Galectin-1 (Sacchettini, J. C., Baum, L. G. and Brewer, C. F., Multivalent Protein-carbohydrate Interactions. A New Paradiagm for Super Molecular Assembly and Signal Transduction, Biochemistry, 40:3009-3015, 2001). The Molt-4 cells were grown in RPMI 1640 5% FCS (Fetal calf serum) in 100% humidity with 5% CO2. Cells were transferred to phenol red free (PRF) RPMI 1640 media with 1% FCS and plated at 2.5×10^4 cells/well. After 3 hours incubation in the dark, the cells were washed once with PBS and re-suspended in prf RPMI 1640 with 1% FCS. These cells were then illuminated with a 1000W Quartz Halogen Lamp with IR and bandpass dichroic filters to allow light between 400 nm-700 nm, at a dose rate of 16 mW/cm^2 at 695 nm. The RIF tumor cells were grown in alpha-DMEM with 10% fetal calf serum, penicillin and streptomycin. Cells were maintained in 5% CO2, 95% air and 100% humidity. For determining the PDT efficacy, these cells were plated in 96-well plates and a density of 1×10^4 cells well in complete media. After overnight incubation to allow the cells to attach the photosensitizers 14 were individually added at variable concentrations. After a 3 hr incubation in the dark at 37° C., the cells were washed once with PBS, then irradiated with the same light source as above (Molt-4 procedure), and the optimal cell kill was obtained at a concentration of 1.0 μM. After PDT the cells were washed once and placed in complete media and incubated for 48 hrs. […] The 96-well plate was read on a microtiter plate reader (Miles Inc. Titertek Multiscan Plus MK II) at an absorbance of 560 nm. […]

In another assay the test system is RIF tumor cells. Briefly: Cellular localization in RIF tumor cells with DPH counterstain. It is filed as cell-based. The conditions noted are these: RIF cells (FIGS. 9a and 9b). The method, then: For investigating the difference in sites of localization between the photosensitizers with and without carbohydrate moieties, the fluorescence light microscopy experiments were performed in Molt-4 and RIF tumor cell lines. In a typical experiment, cells were imaged at 100× on an inverted fluorescence microscope (Carl Zeiss Inc. Axiovert 35.W.Germany) with a charged-coupled device camera (Dage-MTI, model 104722-02). Images were captured and processed by computer using Image-1 image processing software (Universal Imaging Corp., version 4.0, WestChester, Pa.). The photosensitizer fluorescence was assessed by using 530-585 nm excitation and 615 nm long-pass filter to measure emission while 338-378 nm excitation for DPH, and a 450 nm emission filter for emission (400 nm dichroic). […] In addition, […]1-(4-trimethylammonium)-6-phenyl-1,3,5-hexatriene (TMA-DPH), a hydrophobic fluorescent probe which interacts with living cells by instantaneous incorporation into plasma membrane and becomes fluorescent (Illinger, D., and Kuhry, J. G., The Kinetic Aspects of Intracellular Fluorescence Labeling with TMA-DPH Support the Maturation Model for Endocytosis in L929 Cells, The Journal of Cell Biology, 125:783-794, 1994), was added for the last 5 min of the incubation, cells were washed once with PBS and transferred to a microscope slide for imaging. […]

For a further assay, the system named is RIF tumors. Briefly: In vivo photosensitizing efficacy (tumor re-growth assay) in mice bearing RIF tumors. Further details: species or system C3H/HEJ mice. The conditions noted are these: 5.0 μM/kg; for mice tumor free on day 90: light 24 h post-injection, 6 mice/group; for mice tumor free on day 90 / in vivo PDT efficacy (in words): no free lactose. As to the method: Both conjugated and non-conjugated photosensitizers (1-4) were evaluated for their in vivo tumor response in C3H mice implanted with RIF tumors. In brief, C3H/HEJ mice were injected intradermally with 2×10^5 RIF cells in 30 μl HBSS w/o Ca^+2 and magnesium, into the flank and allowed to grow until they were 4-5 mm in diameter. The day before tumors were treatment size, the mice were injected with 0-5 μlmoles/kg of compounds 1-4. At 24 hours post-injection the mice were anesthetized with Ketamine and Xylazine, and restrained on plastic holders, treated with laser light from an argon pumped dye laser at 700 nm for a total fluence of 135 J/cm^2 at a fluence rate of 75 mW/cm^2. The mice (6 mice/group) were checked daily, the tumors were measured using two orthogonal measurements L and W (perpendicular to L) and the volumes were calculated using the formula V=LxW ^2/2 and recorded. Mice were considered cured if there was no palpable tumor at 90 days post PDT treatment.

In the case of `C=C(C=CCO[C@@H]1O[C@H](CO)[C@@H](O[C@@H]2O[C@H](CO)[C@H](O)[C@H](O)[C@H]2O)[C@H](O)[C@H]1O)CN1C(=O)c2c3nc(cc4[nH]c(cc5nc(cc6[nH]c2c(c6C)C1=O)C(CC)=C5C)c(CC)c4C)C(C)C3CCC(=O)OC` (mixture of isomers) [4a, Lactose-Chlorin conjugate joined with diene linkage], in assay [1], the cell kill amounted to 100%. Further, the “cellular localization with DPH as a counterstain” value in the assay on RIF tumor cells is “intense plasma membrane fluorescence”. In addition, the “in vivo PDT efficacy, lactose injected immediately following the drug” value in the assay on RIF tumors (free lactose 100-fold excess) was “significant decrease in PDT efficacy”. The “in vivo PDT efficacy, lactose injected 1 hour prior to light treatment” value in the assay with RIF tumors (lactose 23 hr post-injection of the conjugate) is “quite effective”. In addition, the “mice tumor free on day 90” value with RIF tumors was 3/6; in the assay on RIF tumors (listed as 4) it was “Three out of six”. The “in vivo PDT efficacy (in words)” value with RIF tumors is “quite effective”.

Regarding “Mesopurpurin-18-N-methyl-(2′-butadiene)imide [1a]”, the cell kill entry in assay [1] is “approximately 40%”. Further, the “cellular localization with DPH as a counterstain” value with RIF tumor cells was “diffuse intracellular localization”. Moreover, in the assay with RIF tumors, the “in vivo PDT efficacy with and without lactose administration” value is “ineffective”; the “in vivo PDT efficacy (in words)” value is “inactive in vivo”.
